From US8431715B2, “Thiazole compound (as PPARδ) ligand and pharmaceutical, cosmetic and health food comprised thereof” (Seoul National University Industry Foundation, priority 2007, dated 2013)

Experiments:
PPARγ = target: T1, PPARγ (Homo sapiens, UniProt P37231); assay: Transfection assay (luciferase reporter) in CV-1 cells, PPARγ; format: cell-based; details: 24 hours treatment
T1 construct: Full length PPARs plasmid DNA, reporter DNA confirming PPARs activity owing to its luciferase activity; expressed in transfected cells; host or cells: CV-1 cells
T1 sequence (P37231 1-505): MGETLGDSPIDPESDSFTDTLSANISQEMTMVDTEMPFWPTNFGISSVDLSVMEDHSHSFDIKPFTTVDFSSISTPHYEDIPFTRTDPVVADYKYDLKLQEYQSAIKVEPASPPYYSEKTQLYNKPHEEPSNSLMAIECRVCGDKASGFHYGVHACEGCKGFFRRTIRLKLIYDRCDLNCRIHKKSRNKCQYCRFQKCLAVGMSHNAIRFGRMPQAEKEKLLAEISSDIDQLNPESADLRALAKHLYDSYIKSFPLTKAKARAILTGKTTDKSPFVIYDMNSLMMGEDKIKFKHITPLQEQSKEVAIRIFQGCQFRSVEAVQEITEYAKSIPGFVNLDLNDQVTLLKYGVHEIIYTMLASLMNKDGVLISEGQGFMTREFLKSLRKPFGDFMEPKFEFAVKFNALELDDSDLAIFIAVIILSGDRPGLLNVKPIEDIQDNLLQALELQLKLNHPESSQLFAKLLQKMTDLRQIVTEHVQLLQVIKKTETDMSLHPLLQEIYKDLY
Method: (§1) The PPARδ activities of the R-form compound represented by formula 1 of the present invention and the S-form compound represented by formula 2 were measured by transfection assay. In addition, the selectivity to PPAR subtypes, PPARα and PPARγ, was examined. Cytotoxicity was tested by MTT assay and in vivo activity and toxicity was investigated by animal experiment using mice.
CV-1 cells were used in this assay. The cells were inoculated in a 96-well plate containing DMEM supplemented with 10% FBS, DBS (delipidated) and 1% penicillin/streptomycin and cultured in a 37 °C, 5% CO2 incubator. The experiment was performed according to the steps of inoculation, transfection, sample treatment and confirmation. Particularly, CV-1 cells were inoculated in a 96 well-plate (5000 cells/well), followed by transfection 24 hours later. Full length PPARs plasmid DNA, reporter DNA confirming PPARs activity owing to its luciferase activity, β-galactosidase DNA providing information on transfection efficiency, and transfection reagent were used for the transfection. The compounds of formula 1 and formula 2 were dissolved in dimethylsulfoxide (DMSO), which were treated to the cells via media at different concentrations. […] Luciferase activity and β-galactosidaseactivity were measured with Luminometer and a microplate reader. […] A graph was made with those values and EC50 was calculated.

CV-1 cells = assay: MTT assay, cytotoxicity; format: cell-based; details: 24 hours, even at the concentration of 100,000 times the EC50 value
Method: MTT assay was performed to test cytotoxicity of the compounds of the present invention. MTT is a yellow substance soluble in water, but when it is introduced into a living cell, it turns into a purple insoluble crystal by dehydrogenase in mitochondria. Cytotoxicity can be confirmed by measuring OD550 after dissolving MTT in dimethylsulfoxide. The experiment was performed as follows.
CV-1 cells were inoculated in a 96-well plate (5000 cells/well). The cells were cultured in a 37[…] 5% CO2 incubator for 24 hours, and treated with the compounds of formula 1 and formula 2 at different concentrations. Then, the cells were cultured for 24 hours again, to which MTT reagent was added. After culturing for 15 minutes, the generated purple crystals were dissolved in dimethylsulfoxide. Optical density was measured with a microplate reader to confirm cytotoxicity.

C57BL/6 mice [1] = assay: Reproductive toxicity test; format: in vivo
Method: Acute toxicity and reproductive toxicity tests were performed using mice to evaluate the toxicity of the compound of the present invention. The compound of formula 1 was orally administered to ICR mice at 6 weeks at the dosage of 50 mg/kg, 300 mg/kg and 2000 mg/kg, followed by observation on toxicity for 14 days. […] The result of reproductive toxicity test using C57BL/6 mice was also consistent with the above, which is no toxicity caused by the compound of formula 1 was observed. After oral-administration of the compound to the pregnant female mice, weight gain and growth speed of fetus were investigated.

C57BL/6 mice [2] = assay: Hyperlipidemia improving effect, blood HDL level; format: in vivo; details: 10 mg/kg/day oral, high fat feeds, 6 weeks, serum
Method: In vivo animal test using C57BL/6 (SLC Co.) mice at 6 weeks was performed to confirm the hyperlipidemia improving effect of the compound of the present invention. […] 6 weeks later, blood was taken from orbital veins. Serum was separated and blood HDL level was measured by biochemical method.

C57BL/6 mice [3] = assay: Muscle endurance test in adults with exercise, treadmill; format: in vivo; details: 10 mg/kg oral, mice at 10 weeks, treadmill exercise 30 days
Method: Particularly, the compound of formula 1 was orally administered to C57BL/6 mice at 10 weeks at the concentration of 10 mg/kg, during which the mice were forced to exercise. The exercise was performed with treadmill for […] once a day for 30 days, precisely at the speed of 2 meter/min for the first 5 minutes, at 5 meter/min for 5 minutes, at 8 meter/min for 5 minutes and at 20 meter/min for the last 5 minutes. At the finish, muscle endurance and muscle function enhancing effect was tested by using treadmill. As a result, the time (1.5 fold) and distance (1.6 fold) of exercise were all increased in the group treated with the compound of the present invention, when compared with the control.

PPARδ = target: T2, PPARδ (Homo sapiens, UniProt Q03181); assay: Transfection assay (luciferase reporter) in CV-1 cells, PPARδ; format: cell-based; parameters: Full length PPARs plasmid DNA, reporter DNA confirming PPARs activity owing to its luciferase activity; expressed in transfected cells; host or cells: CV-1 cells
T2 sequence (Q03181 1-441): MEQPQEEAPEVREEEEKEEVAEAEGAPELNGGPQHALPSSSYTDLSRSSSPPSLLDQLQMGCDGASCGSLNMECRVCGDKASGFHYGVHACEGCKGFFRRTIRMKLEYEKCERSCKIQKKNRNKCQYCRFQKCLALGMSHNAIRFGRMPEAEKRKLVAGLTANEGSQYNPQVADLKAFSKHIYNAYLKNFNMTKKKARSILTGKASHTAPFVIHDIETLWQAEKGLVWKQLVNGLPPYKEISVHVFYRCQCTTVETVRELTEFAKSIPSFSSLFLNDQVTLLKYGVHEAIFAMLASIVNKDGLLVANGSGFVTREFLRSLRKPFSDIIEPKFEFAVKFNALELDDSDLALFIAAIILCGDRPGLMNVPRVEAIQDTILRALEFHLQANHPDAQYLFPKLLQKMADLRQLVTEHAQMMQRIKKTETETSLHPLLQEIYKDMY
Method: as §1
CV-1 cells were used in this assay. The cells were inoculated in a 96-well plate containing DMEM supplemented with 10% FBS, DBS (delipidated) and 1% penicillin/streptomycin and cultured in a 37 °C, 5% CO2 incubator. The experiment was performed according to the steps of inoculation, transfection, sample treatment and confirmation. Particularly, CV-1 cells were inoculated in a 96 well-plate (5000 cells/well), followed by transfection 24 hours later. Full length PPARs plasmid DNA, reporter DNA confirming PPARs activity owing to its luciferase activity, β-galactosidase DNA providing information on transfection efficiency, and transfection reagent were used for the transfection. The compounds of formula 1 and formula 2 were dissolved in dimethylsulfoxide (DMSO), which were treated to the cells via media at different concentrations. After culturing the cells in the incubator for 24 hours, the cells were lysed by using lysis buffer. Luciferase activity and β-galactosidaseactivity were measured with Luminometer and a microplate reader. The obtained values of luciferase were modified by the values of β-galactosidase. A graph was made with those values and EC50 was calculated.

Compound: Cc1cc(S[C@H](Cc2ccccc2)c2sc(-c3ccc(C(F)(F)F)cc3)nc2C)ccc1OCC(=O)O (racemic) [formula 1]
- EC50 PPARγ (PPARγ): ia
- cytotoxicity (CV-1 cells): not to have cytotoxicity
- bone development and disease related matters (C57BL/6 mice [1]; mouse, in vivo, po): no changes
- weight gain and growth speed of fetus (C57BL/6 mice [1]; mouse, in vivo, po): no significant difference
- reproductive toxicity (C57BL/6 mice [1]; oral, pregnant female mice): no toxicity
- HDL level increase compared with the control (C57BL/6 mice [2]): 44.6%
- distance of exercise compared with the control (C57BL/6 mice [3]): 1.6 fold
- time of exercise compared with the control (C57BL/6 mice [3]): 1.5 fold
- EC50 (PPARδ; CV-1 cells, 24 hours treatment): 0.6 nM
- activity of R-isomer compared with S-isomer (formula 2) (PPARδ; PPARδ): 10 times
- selectivity to PPARα and PPARγ (PPARδ; PPARδ versus PPARα and PPARγ): 100,000 times
